According to patent publication US8809539B2, “Dicarboxylic acid derivatives as S1P1 receptor agonists” (Bioprojet, priority 2007, dated 2014):

What was measured:
[1] = biological target: T1, Edg3 (S1P3 receptor) (Homo sapiens, UniProt Q99500); assay: GTP-γ-35S binding, agonist activity at Edg3 (S1P3); format: biochemical; settings: membranes of transfected HEK 293 or CHOK1 cells, [35S]GTP-γ-S; read-out: In-Vitro potency EC50 (nM) Edg3
T1 construct: expressed in transfected cells; host or cells: HEK 293 or CHOK1 (membranes)
Description: (§1) Human S1P1-5 receptor subtypes were stably expressed in high levels in HEK 293 or CHOK1 cells following transfection with corresponding plasmid constructs. Although the native cells somewhat respond to S1P, the level of expression and responsiveness of the antibiotic-resistant transfected cell lines that were selected is much higher. When cultivated cells reached 80% confluence, they were collected and, after lysis, cell membranes were collected by centrifugation and washed in buffer containing antiproteases. GTP-γ-^35S binding was performed using ˜5 μg protein of cell membranes suspended in 50 mM tris-HCl pH 7.5 containing 10 mM MgCl2, 100 mM NaCl and 10 μM GDP. The radioligand was 0.025 nM [^35S] GTP-γ-S and non specific binding determined in the presence of 10 μM non-radioactive GTP-γ-S. S1P and receptor agonists enhance the specific binding whereas inverse agonists reduce it. The maximal stimulation elicited by S1P was taken as a reference to define full or partial agonism and calculate the intrinsic activity (i.a.) of compounds.

[2] = biological target: T2, Edg5 (Homo sapiens, UniProt O95136); assay: GTP-γ-35S binding, agonist activity at Edg5; format: biochemical; settings: membranes of transfected HEK 293 or CHOK1 cells, [35S]GTP-γ-S; read-out: In-Vitro potency EC50 (nM) Edg5
T2 construct: expressed in transfected cells; host or cells: HEK 293 or CHOK1 (membranes)
Description: as §1

[3] = biological target: T3, Edg1 (S1P1 receptor) (Homo sapiens, UniProt P21453); assay: GTP-γ-35S binding, agonist activity at Edg1 (S1P1); format: biochemical; settings: membranes of transfected HEK 293 or CHOK1 cells, [35S]GTP-γ-S; read-out: In-Vitro potency EC50 (nM) Edg1
T3 construct: expressed in transfected cells; host or cells: HEK 293 or CHOK1 (membranes)
Description: Human S1P1-5 receptor subtypes were stably expressed in high levels in HEK 293 or CHOK1 cells following transfection with corresponding plasmid constructs. Although the native cells somewhat respond to S1P, the level of expression and responsiveness of the antibiotic-resistant transfected cell lines that were selected is much higher.
When cultivated cells reached 80% confluence, they were collected and, after lysis, cell membranes were collected by centrifugation and washed in buffer containing antiproteases.
GTP-γ-^35S binding was performed using ˜5 μg protein of cell membranes suspended in 50 mM tris-HCl pH 7.5 containing 10 mM MgCl2, 100 mM NaCl and 10 μM GDP. The radioligand was 0.025 nM [^35S] GTP-γ-S and non specific binding determined in the presence of 10 μM non-radioactive GTP-γ-S. S1P and receptor agonists enhance the specific binding whereas inverse agonists reduce it. The maximal stimulation elicited by S1P was taken as a reference to define full or partial agonism and calculate the intrinsic activity (i.a.) of compounds.

[4] = test system: blood lymphocytes (S1P1 receptors in vivo); assay: Lymphopenia in vivo after oral administration; settings: Swiss mice; for ED50: Mus musculus, Lymphocyte, at 24 h
Experimental: Lymphopenia was assessed in vivo. Experiments were done in Swiss mice strain (n=5 per condition). Compounds were administered orally in suspension in methyl-cellulose 1% from 1 h 30 until 48 hours before the experiments. Blood was taken on anesthetized animal (4% isoflurane) and samples collected in EDTA-containing vacuum tubes. After 5 minutes stirring, cells were counted using ABC vet hemocytometer (Scil vet animal Care)

T3 sequence (P21453 whole entry): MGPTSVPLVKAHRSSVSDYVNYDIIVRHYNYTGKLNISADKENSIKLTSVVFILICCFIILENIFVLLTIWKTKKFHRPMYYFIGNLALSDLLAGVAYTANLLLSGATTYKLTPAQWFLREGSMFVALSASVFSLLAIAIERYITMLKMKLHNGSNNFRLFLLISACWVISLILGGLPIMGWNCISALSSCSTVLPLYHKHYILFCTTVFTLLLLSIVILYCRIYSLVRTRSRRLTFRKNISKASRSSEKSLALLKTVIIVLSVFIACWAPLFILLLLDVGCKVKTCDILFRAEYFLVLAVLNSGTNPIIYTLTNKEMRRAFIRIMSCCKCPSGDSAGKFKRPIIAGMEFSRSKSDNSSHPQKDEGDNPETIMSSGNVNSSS
T2 sequence (O95136 whole entry): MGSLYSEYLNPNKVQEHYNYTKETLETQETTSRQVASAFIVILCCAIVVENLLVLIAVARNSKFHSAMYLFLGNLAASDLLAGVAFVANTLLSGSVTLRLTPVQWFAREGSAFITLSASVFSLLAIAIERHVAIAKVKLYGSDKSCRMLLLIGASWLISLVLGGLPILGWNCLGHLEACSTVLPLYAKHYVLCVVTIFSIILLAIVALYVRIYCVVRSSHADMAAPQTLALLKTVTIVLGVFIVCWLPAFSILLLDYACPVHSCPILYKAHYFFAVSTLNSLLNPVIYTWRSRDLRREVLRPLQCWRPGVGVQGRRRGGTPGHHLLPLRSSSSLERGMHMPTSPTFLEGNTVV
T1 sequence (Q99500 whole entry): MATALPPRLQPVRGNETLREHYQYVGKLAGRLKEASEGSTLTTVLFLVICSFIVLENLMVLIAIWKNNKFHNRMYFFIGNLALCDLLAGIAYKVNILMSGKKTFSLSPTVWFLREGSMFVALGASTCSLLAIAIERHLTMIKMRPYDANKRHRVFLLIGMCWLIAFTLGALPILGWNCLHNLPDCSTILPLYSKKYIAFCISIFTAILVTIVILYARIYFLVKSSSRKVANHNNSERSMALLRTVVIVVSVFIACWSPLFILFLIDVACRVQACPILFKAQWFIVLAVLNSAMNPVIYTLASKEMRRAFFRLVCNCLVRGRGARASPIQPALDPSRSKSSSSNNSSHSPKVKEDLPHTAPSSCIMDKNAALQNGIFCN

**Q.** What does the source list for `O=C(O)C1(C(=O)O)CCN(Cc2ccc(-c3noc(-c4ccc(-c5ccccc5)cc4)n3)cc2)CC1` [Example 15]?
**A.** EC50 [1]: > 1000 nM; EC50 [2]: > 1000 nM; EC50 [3]: 0.7 nM

**Q.** Which EC50 [3] does the source give for `C=C(C)[C@@H]1CC=C(c2nc(-c3ccc(CN4CCC(C(=O)O)(C(=O)O)CC4)cc3)no2)CC1` [Example 25] here?
**A.** Its EC50 is 1.7 nM.

**Q.** With `CC(C)(C)C(=O)COC(=O)C1(C(=O)O)CCN(Cc2ccc(-c3noc(-c4ccc(-c5ccccc5)c(F)c4)n3)cc2)CC1` [Example 62, 1-{4-[5-(2-fluorobiphenyl-4-yl)[1,2,4]oxadiazol-3-yl]benzyl}-piperidine-4,4-dicarboxylic acid (3,3-dimethyl-2-oxobutyl)ester] as the compound, how does the ED50 [4] read?
**A.** The ED50 was 0.03 mg/kg.

**Q.** What about the EC50 [3] of the same compound?
**A.** Its EC50 is 6.3 nM.

**Q.** How did the “% lymphopenia” value ([4]; at 10 mg/kg, after 24 h) turn out when `Cl.O=C(O)C1(C(=O)O)CC(NCc2ccc(-c3noc(-c4ccc(-c5ccccc5)c(F)c4)n3)cc2)C1` [Example 49] was run?
**A.** Its value is “at 10 mg/kg 86% lymphopenia after 24 h”.

**Q.** Which results are given for `CO/N=C(/c1ccco1)c1nc(-c2ccc(CN3CCC(C(=O)O)(C(=O)O)CC3)cc2)no1` [Example 22]?
**A.** EC50 [1]: > 1000 nM; EC50 [2]: > 1000 nM; EC50 [3]: 2.2 nM

**Q.** Which EC50 [3] does the source give for `COC(=O)C1(C(=O)O)CC(N(C)Cc2ccc(-c3noc(-c4ccc(CC(C)C)cc4)n3)cc2)C1` (single isomer, unassigned) [Example 54] here?
**A.** Its EC50 is 11.8 nM.

**Q.** How did the ED50 [4] turn out when `COC(=O)C1(C(=O)O)CCN(Cc2ccc(-c3noc(-c4ccc(CC(C)C)cc4)n3)cc2)CC1` [Example 8] was run?
**A.** The ED50 was 3.5 mg/kg.
